# US20230374462A1, “METHOD FOR PRODUCING MYOCARDIAL STEM/PROGENITOR CELL AND METHOD FOR SUPPRESSING MYOCARDIAL FIBROSIS” (priority 2020, published 2023)
# Legend:
# [1] = system: primary human cardiomyocytes (HCM); test: Long-term culture with low-speed imaging of cardiomyocytes in presence of low molecular weight compound; format: cell-based; settings: for long-term culture (proliferation): HCM, FIG. 1B; for cell morphology of cardiomyocytes: long-term culture, FIG. 1A
# Experimental: (§1) The subcultured human cardiomyocytes were seeded at 0.5×10^2 cells/cm^2 on a 35 mm plate (IWAKI) containing: 3 mL of a Vascular Smooth Muscle Cell growth medium containing 3-(6-methyl-2-pyridinyl)-n-phenyl-4-(4-quinolinyl)-1H-pyrazole-1-carbothioamide (A-83-01: A) (final concentration: 1 AM) as a low molecular weight compound TGFβ receptor inhibitor or (1R,4r)-4-((R)-1-aminoethyl)-N-(pyridin-4-yl)cyclohexanecarboxamide (Y-27632: Y) (final concentration: 10 AM) as a ROCK inhibitor, both of the compounds A-83-01 and Y-27632, or free of them: or a Myocyte basal medium. On Day 3, the Vascular Smooth Muscle Cell growth medium containing each low molecular weight compound or the Myocyte basal medium was replaced. Thereafter, the medium was replaced in the same manner every three days.
# After the medium replacement, low-speed imaging was performed using a BZ9000 all-in-one fluorescence microscope (KEYENCE). In addition, the individual cells were tracked throughout the imaging period (110 days), and the final number of cells derived from each cell was measured.
# PC-100-021 cells [2] = test: Quantitative RT-PCR of progenitor, maturation and senescence markers; format: cell-based, human; settings: for number of cell death due to the treatment: concluded from senescence markers
# Experimental: as §1
# (§2) Total RNA was isolated from each cardiomyocyte 1 month and 2 months after culture in the presence of the test low molecular weight compound using miRNeasy Mini Kit (QIAGEN). Reverse transcription reactions were performed using High-Capacity cDNA Reverse Transcription Kit Lifetechnologies according to manufacturer's guidelines. PCR was performed using the obtained cDNA as a template and a Taqman Probe (ThermoFisher). An expression level of a target gene was standardized with β-actin as an endogenous control.
# HCM cells [3] = test: as above; format: cell-based, human; settings: for number of cell death due to the treatment: concluded from senescence markers
# Experimental: as §1, §2
# PC-100-021 cells [4] = test: Western blot of endothelial cell marker (CD31) and muscle cell marker (Troponin T); format: cell-based, human; settings: FIG. 3B
# Description: (§3) FIG. 3 A: Graphs showing mRNA expression of the myocardial progenitor cell markers (GATA4 and VCAM-1), the maturation marker (MYL2), and senescence markers (CDKN1A and CDKN2A) for cardiomyocytes, in the cardiomyocytes treated with the TGFβ receptor inhibitor (A) or the ROCK inhibitor (Y). In each graph, the vertical axis represents the expression amount (Relative mRNA expression) of each mRNA when the expression amount of the cells before culture is 1, and the numerical values on the horizontal axis represent culture periods (day). B: Photographs showing the results of confirming, by Western blot, loss of the expression of an endothelial cell marker (CD31), and expression of a muscle cell marker (Troponin T) and Actin, in primary human cardiomyocytes (HCM) or primary human coronary artery smooth muscle cells (PC-100-021) treated with the TGFβ receptor inhibitor (A) or the ROCK inhibitor (Y). NT indicates an agent-untreated control, and HUVEC indicates a result of using human umbilical vein endothelial cells (CD31-positive as the endothelial cell marker).
# HCM cells [5] = test: as above; format: cell-based, human; settings: FIG. 3B
# Description: as §3
# [6] = system: primary human coronary artery smooth muscle cells (PC-100-021); test: Long-term culture with low-speed imaging in presence of low molecular weight compound; format: cell-based; settings: FIG. 1C
# [7] = 1 and 2 months culture, vs agent untreated group, FIG. 2
# [8] = culture periods in days, FIG. 3A
Structure (SMILES),long-term culture (proliferation) [1],cell morphology of cardiomyocytes [1],decrease in progenitor cell markers (GATA4 and VCAM-1) mRNA during culture (PC-100-021 cells [2]; [7]),increase in maturation marker (MYL2) mRNA during culture (PC-100-021 cells [2]; [7]),expression of senescence markers (CDKN1A and CDKN2A) mRNA (PC-100-021 cells [2]; FIG. 3A),number of cell death due to the treatment (PC-100-021 cells [2]),decrease in progenitor cell markers (GATA4 and VCAM-1) mRNA during culture (PC-100-021 cells [2]; [8]),increase in maturation marker (MYL2) mRNA during culture (PC-100-021 cells [2]; [8]),decrease in progenitor cell markers (GATA4 and VCAM-1) mRNA during culture (HCM cells [3]; [7]),increase in maturation marker (MYL2) mRNA during culture (HCM cells [3]; [7]),expression of senescence markers (CDKN1A and CDKN2A) mRNA (HCM cells [3]; FIG. 3A),number of cell death due to the treatment (HCM cells [3]),decrease in progenitor cell markers (GATA4 and VCAM-1) mRNA during culture (HCM cells [3]; [8]),increase in maturation marker (MYL2) mRNA during culture (HCM cells [3]; [8]),expression of endothelial cell marker (CD31) (PC-100-021 cells [4]),expression of muscle cell marker (PC-100-021 cells [4]),expression of endothelial cell marker (CD31) (HCM cells [5]),expression of muscle cell marker (HCM cells [5]),long-term culture (proliferation) [6]
"C[C@@H](N)[C@H]1CC[C@H](C(=O)Nc2ccncc2)CC1 [Y-27632, (1R,4r)-4-((R)-1-aminoethyl)-N-(pyridin-4-yl)cyclohexanecarboxamide]",long-term culture was induced,maintained the original cell morphology,suppressed,suppressed,hardly expressed,small,suppressed,suppressed,suppressed,suppressed,hardly expressed,small,suppressed,suppressed,not expressed,expressed,not expressed,expressed,
"Cc1cccc(-c2nn(C(=S)Nc3ccccc3)cc2-c2ccnc3ccccc23)n1 [A-83-01, 3-(6-methyl-2-pyridinyl)-n-phenyl-4-(4-quinolinyl)-1H-pyrazole-1-carbothioamide]",long-term culture was induced,maintained the original cell morphology,promoted,promoted,hardly expressed,small,,promote,promoted,promoted,hardly expressed,small,,promote,not expressed,expressed,not expressed,expressed,long-term culture was induced
